From article PMC5290327, “SC83288 is a clinical development candidate for the treatment of severe malaria” (Nature Communications, 2017)
Values after ≈ are worked out from the molar mass of the structure shown. Where two headings read alike, the source gives them in different places.

What was measured:
[1] = In vitro metabolism in liver microsomes; details: Mouse
[2] = In vitro metabolism in liver microsomes; details: Human
[3] = In vitro metabolism in liver microsomes; details: Monkey
[4] = In vitro metabolism in liver microsomes; details: Dog
[5] = In vitro metabolism in liver microsomes; details: Rat
P. falciparum strain Dd2 = experiment: Growth inhibition assay, asexual blood stages; assay type: cell-based, Plasmodium falciparum
Plasmodium vinckei = experiment: Rodent malaria model; assay type: in vivo; details: P. vinckei, 30 mg kg-1 i.p. 1x4 days
Excerpt: The two SC compounds were also active in the Plasmodium vinckei rodent malaria model system.

Solubility in water = details: for Solubility in H2O: Supplementary Table 2
CACO 2 cells = experiment: Permeability assay; assay type: in vitro ADME; details: Supplementary Table 2
Protocol: The study was conducted by Cyprotex (Macclesfield, United Kingdom). CACO 2 cells (Sigma-Aldrich, catalogue: 86010202) were seeded on Millipore Millicell plates and formed a confluent monolayer over 20 days before the experiment. On day 20, the tested compounds at a final concentration of 10 μM were added to the apical side of the membrane. The transport of the compound across the monolayer was monitored over a 2 h period by liquid chromatography (LC)–MS/MS quantification. The permeability coefficient (Papp) was calculated from the following equation: [drawing 1] , where dQ/dt is the rate of permeation of the drug across the cells, C0 the donor compartment concentration at time zero and A the area of the cell monolayer. C0 was obtained from analysis of the dosing solution at the start of the experiment.

P. falciparum strain D10 = experiment: Growth inhibition assay; assay type: cell-based; details: Plasmodium falciparum
P. falciparum strain 3D7 = experiment: Growth inhibition assay; assay type: cell-based; details: Plasmodium falciparum
[6] = system: P. falciparum strain FCR3; experiment: Growth inhibition assay; assay type: cell-based; details: Plasmodium falciparum
P. falciparum strain K1 = experiment: microbe, parasite or virus in culture; assay type: cell-based; details: Plasmodium falciparum
[7] = system: P. falciparum strain Thai19; experiment: Growth inhibition assay; assay type: cell-based; details: Plasmodium falciparum
P. falciparum strain 7G8 = experiment: microbe, parasite or virus in culture; assay type: cell-based; details: Plasmodium falciparum
[8] = system: Dd2 P. falciparum parasites; experiment: In vitro parasite reduction ratio assay (Sanz protocol); assay type: cell-based, Plasmodium falciparum
Plasmodium berghei = experiment: Rodent malaria model; assay type: in vivo; details: P. berghei, 50 mg kg-1 i.p. 1x4 days
Protocol: This was the case for both an in vivo 4 day dosing regimen of 30 mg kg^−1 per day and an ex vivo one-cycle growth inhibition assay. […] Differential therapeutic efficacy in various rodent model systems is a well-established phenomenon and is typically associated with charged compounds, such as positively charged amidines and negatively charged phosphoric acid or carboxylic acid containing drugs. The phenomenon is explained based on selective uptake of charged compounds through parasite-induced channels, termed new permeation pathways, in the host cell plasma membrane and species-specific characteristics of the new permeation pathways.

[9] = Supplementary Table 2, read-out: In vitro IC50
[10] = Plasmodium falciparum, DD2, strain Dd2, Supplementary Table 3

For `C=CNC(=N)c1cccc(NC(=O)Nc2ccc(S(=O)(=O)NCc3ccc(S(N)(=O)=O)cc3)cc2)c1` [SC81458 M30], the “Share of metabolite from the total combined metabolite peak area” value (from here on “Share of metabolite”) ([1]; SC81458 metabolites) was 1.8%.
In the case of `CCCCN1CCN(C(=N)c2cccc(NC(=O)Nc3ccc(S(N)(=O)=O)cc3)c2)CC1` [SC81458 M5], the “Share of metabolite” value ([2]; SC81458 metabolites) is reported as 51.4%, the “Share of metabolite” value ([3]; SC81458 metabolites) is reported as 0.1% and the “Share of metabolite” value ([4]; SC81458 metabolites) is reported as 3.1%. The “Share of metabolite” value ([1]; SC81458 metabolites) was 49% and the “Share of metabolite” value ([5]; SC81458 metabolites) was 23.3%.
For `COC(=O)N1CCN(C(=N)c2cccc(NC(=O)Nc3ccc(S(N)(=O)=O)cc3)c2)CC1` [SC83288 M9], the “Share of metabolite” value ([2]; SC83288 metabolites) was 82%, the “Share of metabolite” value ([3]; SC83288 metabolites) was 72.3% and the “Share of metabolite” value ([4]; SC83288 metabolites) was 4.8%. For the same molecule, the “Share of metabolite” value ([1]; SC83288 metabolites) was 69.9% and the “Share of metabolite” value ([5]; SC83288 metabolites) was 69%.
With `CCCCC(=O)N1CCN(C(=N)c2cccc(NC(=O)Nc3ccc(S(=O)(=O)NCc4ccc(S(N)(=O)=O)cc4)cc3)c2)CC1` [SC83290] the IC50 (P. falciparum strain Dd2; [9]) was 40 nM, the Outcome (Plasmodium vinckei) was “no complete clearance” and the “Outcome: decrease of parasitemia” value (Plasmodium vinckei) was over 90%. For the same molecule, the “Solubility in H2O” value (Solubility in water) was over 1000 µg/mL.
In the case of `N=C(c1cccc(NC(=O)Nc2ccc(S(=O)(=O)NCc3ccc(S(N)(=O)=O)cc3)cc2)c1)N1CCC(O)CC1` [SC77225], the IC50 (P. falciparum strain Dd2; [9]) is reported as 165 nM and the Papp (CACO 2 cells) is reported as 0.38 10-6 cm s-1.
With `C[C@@H]1CC[C@H]2[C@@H](C)C(=O)O[C@@H]3O[C@@]4(C)CC[C@@H]1[C@]32OO4` [Artemisinin] the IC50 (P. falciparum strain Dd2; [10]) was 2 ± 0.1 nM, the IC50 (P. falciparum strain D10) was 9 ± 0.4 nM and the IC50 (P. falciparum strain 3D7) was 8 ± 0.3 nM. The IC50 [6] was 5 ± 1 nM, the IC50 (P. falciparum strain K1) was 3 ± 1 nM and the IC50 [7] was 3 ± 1 nM. For the same molecule, the IC50 (P. falciparum strain 7G8) was 1 ± 0.3 nM, the “In vitro PCT99.9%” value ([8]; 10 times IC50, Dd2) was 21 ± 3 h and the “In vitro lag phase” value ([8]; 10 times IC50, Dd2) was “zero”. The “In vitro logPRR” value ([8]; 10 times IC50, Dd2, over 48 h) was 4.5±2.
With `N=C(c1cccc(NC(=O)Nc2ccc(S(=O)(=O)NCc3ccc(S(N)(=O)=O)cc3)cc2)c1)N1CCNCC1` [Metabolite 1] the IC50 (P. falciparum strain Dd2; major metabolite, read-out: IC50, antiplasmodial activity in vitro) was 65 nM, the “Share of metabolite” value ([2]; SC81458 metabolites) was 7% and the “Share of metabolite” value ([2]; SC83288 metabolites) was 13.3%. The “Share of metabolite” value ([3]; SC81458 metabolites) was 10.5%, the “Share of metabolite” value ([3]; SC83288 metabolites) was 16.2% and the “Share of metabolite” value ([4]; SC81458 metabolites) was 63.6%. For the same molecule, the “Share of metabolite” value ([4]; SC83288 metabolites) was 87.3%, the “Share of metabolite” value ([1]; SC81458 metabolites) was 22.2% and the “Share of metabolite” value ([1]; SC83288 metabolites) was 5%. For the same molecule, the “Share of metabolite” value ([5]; SC81458 metabolites) was 27.8% and the “Share of metabolite” value ([5]; SC83288 metabolites) was 19.7%.
With `N=C(N)c1cccc(NC(=O)Nc2ccc(S(=O)(=O)NCc3ccccc3)cc2)c1` [SC08165] the IC50 (P. falciparum strain Dd2; [9]) was 134 nM, the Papp (CACO 2 cells) was 1.22 10-6 cm s-1 and the Outcome (Plasmodium berghei) was “inactive”.
In the case of `CCc1nc(N)nc(N)c1-c1ccc(Cl)cc1` [Pyrimethamine], the IC50 (P. falciparum strain D10) is reported as 11 ± 2 nM, the IC50 (P. falciparum strain 3D7) is reported as 16 ± 3 nM and the IC50 [6] is reported as 31 ± 8 nM. For the same molecule, the IC50 (P. falciparum strain K1) was over 15000 nM, the IC50 [7] was over 15000 nM and the IC50 (P. falciparum strain 7G8) was over 15000 nM.
For `N=C(c1cccc(NC(=O)Nc2ccc(S(=O)(=O)NCc3ccc(S(N)(=O)=O)cc3)cc2)c1)N1CCNCC1` [SC82904], the IC50 (P. falciparum strain Dd2; Supplementary Table 8, read-out: In vitro IC50) was 99 nM, the Outcome (Plasmodium vinckei) was “no complete clearance” and the “Outcome: decrease of parasitemia” value (Plasmodium vinckei) was over 80%.
With `OC(c1cc(C(F)(F)F)nc2c(C(F)(F)F)cccc12)C1CCCCN1` (stereo not shown) [Mefloquine] the IC50 (P. falciparum strain Dd2; [10]) was 0.04 ± 0.1 nM, the IC50 (P. falciparum strain D10) was 0.01 nM and the IC50 (P. falciparum strain 3D7) was 0.04 ± 0.1 nM. For the same molecule, the IC50 [6] was 0.04 nM, the IC50 (P. falciparum strain K1) was 0.01 nM and the IC50 [7] was 0.01 nM. It also gave an IC50 (P. falciparum strain 7G8) of 0.2 ± 0.1 nM.
Molecule `N=C(N)c1cccc(NC(=O)Nc2cccc(C(=N)N)c2)c1` [amicarbalide, reference compound] has an IC50 (P. falciparum strain Dd2; Plasmodium falciparum, DD2, read-out: In vitro IC50, Supplementary Table 2) of 10 nM and a solubility (Solubility in water; water) of 100 µg/mL (≈ 337 µM).
With `CCCN1CCN(C(=N)c2cccc(NC(=O)Nc3ccc(S(=O)(=O)NCc4ccc(S(N)(=O)=O)cc4)cc3)c2)CC1` [SC82367] the IC50 (P. falciparum strain Dd2; [9]) was 7 nM, the Papp (CACO 2 cells) was 5.40 10-6 cm s-1 and the “Solubility in H2O” value (Solubility in water) was over 1000 µg/mL.
In the case of `N=C(c1cccc(NC(=O)Nc2ccc(S(=O)(=O)NCc3ccc(S(N)(=O)=O)cc3)cc2)c1)N1CCOCC1` [SC87507], the IC50 (P. falciparum strain Dd2; [9]) is reported as 139 nM and the Papp (CACO 2 cells) is reported as 1.23 10-6 cm s-1.
